Measurements taken from US20100305150A1, “TUBEROUS SCLEROSIS TREATMENT” (priority 2006, published 2010).

What was measured:
[1] = tested on: kidney and liver tumors in Tsc1+/− mice; experiment: Treatment trial in Tsc1+/− mouse model of Tsc (1 month study); format: in vivo; settings: female mice only
Experimental: (§1) Also trials of treatment with a Compound A in mouse models of Tsc may be carried out (1 month study). A first trial is performed in the Tsc1+/− mice, in which there is a sex effect on tumor development, so that female mice are studied only. A second trial is performed in Tsc2+/− mice, in which the use of the carcinogen ENU is performed to enhance and accelerate the rate of tumor formation in the kidney.

[2] = tested on: kidney and liver tumors in Tsc2+/− mice; experiment: Treatment trial in Tsc2+/− mouse model of Tsc with carcinogen ENU (1 month study); format: in vivo; settings: ENU to accelerate kidney tumor formation
Experimental: as §1

[3] = tested on: NF1 deficient cell or animals (mice) models; experiment: Activity in neurofibromatosis, NF1 deficient cell or animal models
From the text: Activity in neurofibromatosis may be determined in NF1 deficient cell or animals (mice) models, e.g. analogously to TSC deficient cell or animals (mice) models.

[4] = tested on: Tsc1−/− and Tsc2−/− and control MEF cell lines; experiment: Growth of Tsc1−/−, Tsc2−/− and control MEF cell lines, MTT assay; format: cell-based; settings: Tsc1 null and control MEF cell lines
From the text: MEF cell lines are generated in which there is loss of either Tsc1 or Tsc2 and which have a profound decrease in signaling through Akt. Decreased Akt activation may be seen in response to all stimuli, including serum, PDGF, EGF, insulin, and IGF1. […] In addition, over-expression of PDGFRα by short or long-term transfection leads to increased Akt phosphorylation and stimulation in response to multiple growth factors.
Signaling in Tsc 1 or Tsc 2 null MEFs in response to IGF1 in combination with a Compound A may be explored. Wortmannin may be used as an […].
Growth of Tsc1−/− and Tsc2−/− and control MEF cell lines in serum may be assessed in triplicate wells of cells plated at uniform density using the MTT assay. Growth responses are normalized individually for each cell line, to growth in the absence of any stimulation.

## CO[C@H]1C[C@@H]2CC[C@@H](C)[C@@](O)(O2)C(=O)C(=O)N2CCCC[C@H]2C(=O)O[C@H]([C@H](C)C[C@@H]2CC[C@@H](OCCO)[C@H](OC)C2)CC(=O)[C@H](C)/C=C(\C)[C@@H](O)[C@@H](OC)C(=O)[C@H](C)C[C@H](C)/C=C/C=C/C=C/1C [Compound A, 40-O-(2-hydroxyethyl)-rapamycin]
[1]
  reduction of kidney and liver tumors: dramatic effect in reducing kidney and liver tumors
[2]
  reduction of kidney and liver tumors: dramatic effect in reducing kidney and liver tumors
[3]
  activity in neurofibromatosis assays: shows activity
[4]; IGF1 stimulation
  growth response of the cells to IGF1: blocks any growth response of the cells to IGF1
[4]; serum or IGF1 stimulation, all conditions
  growth of the cell lines (MTT assay): significantly reduces growth under all conditions
